Source: ChEMBL document CHEMBL3885861, “Open TG-GATES”

Species: Rattus norvegicus
Test: Open TG-GATES - Regimen: Daily Repeat
Format: toxicity, organism-based, Sprague-Dawley
Set-up: regimen Daily Repeat, gender Male, age 6 weeks
Settings: in vivo, po, route gavage; for APTT / Bas / Eos / Fbg / Ht / Lym / MCH / MCHC / MCV / Mono / Neu / Plat / RBC / Ret / WBC: tissue Blood; for ALP / ALT / AST / BUN / CRE / DBIL / GLC / IP / K / LDH / Na / PL / RALB / TBIL / TC / TG / TP / gamma-GTP: tissue Plasma
[1] = 0 mg/kg, 72 h, dose level Control, time 3 day
[2] = 0 mg/kg, […], dose level Control, time 7 day
[3] = 0 mg/kg, […], dose level Control, time 14 day
[4] = 0 mg/kg, […], dose level Control, time 28 day
[5] = 45 mg/kg, 72 h, dose level Low, time 3 day
[6] = 45 mg/kg, […], dose level Low, time 7 day
[7] = 45 mg/kg, […], dose level Low, time 14 day
[8] = 45 mg/kg, […], dose level Low, time 28 day

`CCCC(CCC)C(=O)O` [VALPROIC ACID] showed a TERMINAL_BW [1] of 222 g, an APTT [1] of 18.8 s and a Bas [1] of 0%. For the same compound, the Eos [1] was 1%, the Fbg [1] was 222.8 mg/dL and the Ht [1] was 37.7%. For the same compound, the Lym [1] was 82.2%, the MCH [1] was 21.3 pg and the MCHC [1] was 34.2%. For the same compound, the MCV [1] was 62.3 fL, the Mono [1] was 3.4% and the Neu [1] was 12.8%. The Plat [1] was 135 x10_4/uL, the RBC [1] was 604.8 x10_4/ul and the Ret [1] was 6.6%. It also gave a WBC [1] of 101 x10_2/uL, an ALP [1] of 1099.6 IU/L and an ALT [1] of 35.6 IU/L. For the same compound, the AST [1] was 65.4 IU/L, the BUN [1] was 16.2 mg/dL and the CRE [1] was 0.4 mg/dL. For the same compound, the DBIL [1] was 0.062 mg/dL, the GLC [1] was 216.2 mg/dL and the IP [1] was 8 mg/dL. The K [1] was 4.1 meq/L, the LDH [1] was 206.6 IU/L and the Na [1] was 140.8 meq/L. It also gave a PL [1] of 145.2 mg/dL, an RALB [1] of 3.3 g/dL and a TBIL [1] of 0.1 mg/dL. The TC [1] was 71.6 mg/dL, the TG [1] was 84.6 mg/dL and the TP [1] was 5.4 g/dL. The gamma-GTP [1] was 0.8 IU/L, the TERMINAL_BW [2] was 256.3 g and the TERMINAL_BW [3] was 316.1 g. For the same compound, the TERMINAL_BW [4] was 396.1 g, the APTT [2] was 19.2 s and the Bas [2] was 0%. It also gave an Eos [2] of 1%, a Fbg [2] of 210.8 mg/dL and a Ht [2] of 40.7%. It also gave a Lym [2] of 83.8%, an MCH [2] of 21.2 pg and an MCHC [2] of 34.3%. For the same compound, the MCV [2] was 61.9 fL, the Mono [2] was 2.6% and the Neu [2] was 12.4%. The Plat [2] was 132.8 x10_4/uL, the RBC [2] was 658.4 x10_4/ul and the Ret [2] was 5.8%. It also gave a WBC [2] of 96.1 x10_2/uL, an APTT [3] of 18.3 s and a Bas [3] of 0%. For the same compound, the Eos [3] was 1%, the Fbg [3] was 228.2 mg/dL and the Ht [3] was 40.9%. For the same compound, the Lym [3] was 78.6%, the MCH [3] was 20.7 pg and the MCHC [3] was 35.2%. It also gave an MCV [3] of 58.9 fL, a Mono [3] of 2.4% and a Neu [3] of 17.6%. It also gave a Plat [3] of 140.4 x10_4/uL, an RBC [3] of 695 x10_4/ul and a Ret [3] of 4.7%. For the same compound, the WBC [3] was 114.6 x10_2/uL, the APTT [4] was 19.4 s and the Bas [4] was 0%. The Eos [4] was 1%, the Fbg [4] was 227.8 mg/dL and the Ht [4] was 42.7%. It also gave a Lym [4] of 83%, an MCH [4] of 19.2 pg and an MCHC [4] of 34.9%. For the same compound, the MCV [4] was 55.1 fL, the Mono [4] was 2.2% and the Neu [4] was 12.8%. It also gave a Plat [4] of 108.4 x10_4/uL, an RBC [4] of 775.4 x10_4/ul and a Ret [4] of 2.6%. It also gave a WBC [4] of 129.7 x10_2/uL, an ALP [2] of 909.6 IU/L and an ALT [2] of 33.6 IU/L. It also gave an AST [2] of 66 IU/L, a BUN [2] of 17.2 mg/dL and a CRE [2] of 0.4 mg/dL. It also gave a DBIL [2] of 0.08 mg/dL, a GLC [2] of 223.2 mg/dL and an IP [2] of 8 mg/dL. The K [2] was 3.8 meq/L, the LDH [2] was 199.6 IU/L and the Na [2] was 141 meq/L. For the same compound, the PL [2] was 146.2 mg/dL, the RALB [2] was 3.4 g/dL and the TBIL [2] was 0.1 mg/dL. For the same compound, the TC [2] was 68.8 mg/dL, the TG [2] was 106.4 mg/dL and the TP [2] was 5.5 g/dL. It also gave a gamma-GTP [2] of 1.2 IU/L, an ALP [3] of 946.4 IU/L and an ALT [3] of 34.8 IU/L. It also gave an AST [3] of 64.4 IU/L, a BUN [3] of 19 mg/dL and a CRE [3] of 0.4 mg/dL. It also gave a DBIL [3] of 0.098 mg/dL, a GLC [3] of 231.4 mg/dL and an IP [3] of 7.1 mg/dL. It also gave a K [3] of 3.6 meq/L, an LDH [3] of 198.8 IU/L and a Na [3] of 140.6 meq/L. For the same compound, the PL [3] was 166 mg/dL, the RALB [3] was 3.5 g/dL and the TBIL [3] was 0.1 mg/dL. The TC [3] was 77 mg/dL, the TG [3] was 137.2 mg/dL and the TP [3] was 5.9 g/dL. It also gave a gamma-GTP [3] of 1.2 IU/L, an ALP [4] of 657.8 IU/L and an ALT [4] of 34.8 IU/L. The AST [4] was 64.4 IU/L, the BUN [4] was 17.6 mg/dL and the CRE [4] was 0.5 mg/dL. For the same compound, the DBIL [4] was 0.088 mg/dL, the GLC [4] was 208.8 mg/dL and the IP [4] was 6.9 mg/dL. For the same compound, the K [4] was 3.9 meq/L, the LDH [4] was 175.2 IU/L and the Na [4] was 140.2 meq/L. The PL [4] was 150.6 mg/dL, the RALB [4] was 3.5 g/dL and the TBIL [4] was 0.1 mg/dL. For the same compound, the TC [4] was 66.4 mg/dL, the TG [4] was 155 mg/dL and the TP [4] was 6.1 g/dL. For the same compound, the gamma-GTP [4] was 1 IU/L, the TERMINAL_BW [5] was 226.4 g and the APTT [5] was 18.3 s. The Bas [5] was 0%, the Eos [5] was 1% and the Fbg [5] was 221.6 mg/dL. The Ht [5] was 38.6%, the Lym [5] was 78% and the MCH [5] was 21.7 pg. The MCHC [5] was 34.2%, the MCV [5] was 63.3 fL and the Mono [5] was 3.4%. The Neu [5] was 17%, the Plat [5] was 137.5 x10_4/uL and the RBC [5] was 609.4 x10_4/ul. For the same compound, the Ret [5] was 7.3%, the WBC [5] was 105.8 x10_2/uL and the ALP [5] was 892.6 IU/L. For the same compound, the ALT [5] was 36 IU/L, the AST [5] was 69 IU/L and the BUN [5] was 15.4 mg/dL. The CRE [5] was 0.4 mg/dL, the DBIL [5] was 0.076 mg/dL and the GLC [5] was 210.4 mg/dL. The IP [5] was 8.7 mg/dL, the K [5] was 4 meq/L and the LDH [5] was 217.4 IU/L. For the same compound, the Na [5] was 140.8 meq/L, the PL [5] was 160.4 mg/dL and the RALB [5] was 3.4 g/dL. For the same compound, the TBIL [5] was 0.1 mg/dL, the TC [5] was 78.4 mg/dL and the TG [5] was 84.2 mg/dL. It also gave a TP [5] of 5.5 g/dL, a gamma-GTP [5] of 1.4 IU/L and a TERMINAL_BW [6] of 255.3 g. It also gave a TERMINAL_BW [7] of 314.8 g, a TERMINAL_BW [8] of 407 g and an APTT [6] of 19 s. For the same compound, the Bas [6] was 0%, the Eos [6] was 1% and the Fbg [6] was 211.6 mg/dL. For the same compound, the Ht [6] was 40.1%, the Lym [6] was 82.6% and the MCH [6] was 21.3 pg. For the same compound, the MCHC [6] was 34.4%, the MCV [6] was 62 fL and the Mono [6] was 3%. It also gave a Neu [6] of 12.8%, a Plat [6] of 133.3 x10_4/uL and an RBC [6] of 647.4 x10_4/ul. The Ret [6] was 5.7%, the WBC [6] was 143.8 x10_2/uL and the APTT [7] was 18.3 s. It also gave a Bas [7] of 0%, an Eos [7] of 1% and a Fbg [7] of 229.2 mg/dL. The Ht [7] was 41.1%, the Lym [7] was 83.8% and the MCH [7] was 20.7 pg. The MCHC [7] was 35%, the MCV [7] was 59.1 fL and the Mono [7] was 2.6%. The Neu [7] was 12.2%, the Plat [7] was 130 x10_4/uL and the RBC [7] was 695.4 x10_4/ul. For the same compound, the Ret [7] was 4.7%, the WBC [7] was 113.4 x10_2/uL and the APTT [8] was 19.9 s. For the same compound, the Bas [8] was 0%, the Eos [8] was 1.4% and the Fbg [8] was 214.2 mg/dL. For the same compound, the Ht [8] was 42.1%, the Lym [8] was 82.8% and the MCH [8] was 19.6 pg. It also gave an MCHC [8] of 35.1%, an MCV [8] of 55.8 fL and a Mono [8] of 2%. It also gave a Neu [8] of 13.2%, a Plat [8] of 112.1 x10_4/uL and an RBC [8] of 755.6 x10_4/ul. For the same compound, the Ret [8] was 2.7%, the WBC [8] was 101.3 x10_2/uL and the ALP [6] was 833.2 IU/L. It also gave an ALT [6] of 35.2 IU/L, an AST [6] of 65.6 IU/L and a BUN [6] of 16.2 mg/dL. The CRE [6] was 0.4 mg/dL, the DBIL [6] was 0.084 mg/dL and the GLC [6] was 219.6 mg/dL. The IP [6] was 8.2 mg/dL, the K [6] was 3.7 meq/L and the LDH [6] was 193.8 IU/L. The Na [6] was 140.2 meq/L, the PL [6] was 143.4 mg/dL and the RALB [6] was 3.4 g/dL. It also gave a TBIL [6] of 0.1 mg/dL, a TC [6] of 73.2 mg/dL and a TG [6] of 86.4 mg/dL. For the same compound, the TP [6] was 5.6 g/dL, the gamma-GTP [6] was 1.6 IU/L and the ALP [7] was 914.4 IU/L. For the same compound, the ALT [7] was 34.8 IU/L, the AST [7] was 65.8 IU/L and the BUN [7] was 17.2 mg/dL. It also gave a CRE [7] of 0.4 mg/dL, a DBIL [7] of 0.086 mg/dL and a GLC [7] of 234 mg/dL. It also gave an IP [7] of 7.5 mg/dL, a K [7] of 4 meq/L and an LDH [7] of 192 IU/L. The Na [7] was 141.2 meq/L, the PL [7] was 151.2 mg/dL and the RALB [7] was 3.3 g/dL. It also gave a TBIL [7] of 0.1 mg/dL, a TC [7] of 74.4 mg/dL and a TG [7] of 106 mg/dL. The TP [7] was 5.8 g/dL, the gamma-GTP [7] was 0.8 IU/L and the ALP [8] was 660.2 IU/L. For the same compound, the ALT [8] was 37.4 IU/L, the AST [8] was 65 IU/L and the BUN [8] was 19 mg/dL. It also gave a CRE [8] of 0.4 mg/dL, a DBIL [8] of 0.1 mg/dL and a GLC [8] of 200 mg/dL. The IP [8] was 6.8 mg/dL, the K [8] was 3.8 meq/L and the LDH [8] was 168.2 IU/L. It also gave a Na [8] of 141.4 meq/L, a PL [8] of 147.2 mg/dL and an RALB [8] of 3.4 g/dL. It also gave a TBIL [8] of 0.2 mg/dL, a TC [8] of 63.8 mg/dL and a TG [8] of 158.4 mg/dL.
